Source: patent publication US7786141B2 (Vertex Pharmaceuticals Incorporated, priority 2004, dated 2010)

How the values were obtained:
[1] = target: T1, M1 muscarinic receptor (Homo sapiens, UniProt P11229); experiment: Functional mobilization of intracellular calcium (FLIPR) in M1-CHO cells; assay type: cell-based; conditions: Table 4; for Emax: 100% efficacy is the maximum response obtained with the Carbachol control; for M1 Activity: modulating M1 receptor
T1 construct: expressed in transfected cells; host or cells: CHO (M1-CHO)
T1 sequence (P11229 1-460): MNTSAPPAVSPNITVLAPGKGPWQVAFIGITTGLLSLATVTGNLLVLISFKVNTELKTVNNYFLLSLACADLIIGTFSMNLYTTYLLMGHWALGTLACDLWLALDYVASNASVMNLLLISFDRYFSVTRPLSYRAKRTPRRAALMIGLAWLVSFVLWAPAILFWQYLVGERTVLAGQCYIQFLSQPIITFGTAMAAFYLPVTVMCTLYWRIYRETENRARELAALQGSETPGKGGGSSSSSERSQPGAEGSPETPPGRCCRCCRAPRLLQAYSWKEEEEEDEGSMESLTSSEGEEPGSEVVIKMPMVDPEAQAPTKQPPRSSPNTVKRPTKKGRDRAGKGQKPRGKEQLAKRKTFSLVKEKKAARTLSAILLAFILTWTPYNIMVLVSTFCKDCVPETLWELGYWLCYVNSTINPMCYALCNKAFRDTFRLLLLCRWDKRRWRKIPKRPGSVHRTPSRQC
Outline: (§1)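 FLIPR Ca2+ read, ex 488/em 540 nm, 60 s. Recombinant CHO lines (M1 or M4), dye-loaded Fluo-3 AM 60-90 min at 37° C, probenecid 1 mM, pH 7.4. Agonist: compound alone; inhibition: 15 min compound pre-incubation, then carbachol at EC80 for that subtype.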

[2] = target: T2, M4 muscarinic receptor (Homo sapiens, UniProt P08173); experiment: Functional mobilization of intracellular calcium (FLIPR) in M4-CHO cells; assay type: cell-based; conditions: Table 4; for Emax: 100% efficacy is the maximum response obtained with the Carbachol control; for M4 Activity: modulating M4 receptor
T2 construct: expressed in transfected cells; host or cells: CHO (M4-CHO)
T2 sequence (P08173 1-479): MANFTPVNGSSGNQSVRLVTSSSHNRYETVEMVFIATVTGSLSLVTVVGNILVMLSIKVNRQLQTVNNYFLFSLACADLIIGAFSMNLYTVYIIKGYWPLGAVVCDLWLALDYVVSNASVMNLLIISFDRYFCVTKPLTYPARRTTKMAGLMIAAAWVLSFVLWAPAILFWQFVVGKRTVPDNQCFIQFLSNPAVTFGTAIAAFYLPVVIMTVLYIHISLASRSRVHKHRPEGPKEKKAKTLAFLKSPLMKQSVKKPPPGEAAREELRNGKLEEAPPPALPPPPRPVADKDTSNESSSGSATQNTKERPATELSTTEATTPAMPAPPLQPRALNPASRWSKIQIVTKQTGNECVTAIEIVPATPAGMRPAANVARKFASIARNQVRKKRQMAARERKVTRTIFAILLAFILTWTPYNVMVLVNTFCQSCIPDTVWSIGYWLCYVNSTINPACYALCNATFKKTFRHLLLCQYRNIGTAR
Outline: as §1

Compound: CC(=O)N1CC2(CCN(CC3CCN(C(=O)O[C@@H]4CCOC4)CC3)CC2)c2cc(C)ccc21 [compound 550]
- Emax [1]: < 25%
- M1 Activity [1]: x (activity was measured to be greater than 5.0 μM)
- Emax [2]: < 25%
- M4 Activity [2]: x (activity was measured to be greater than 5.0 μM)

Compound: CCOC(=O)N1CCC(N2CCC3(CC2)CN(C(C)=O)c2c(C(F)(F)F)cccc23)CC1 [compound 551]
- Emax [1]: < 25%
- M1 Activity [1]: x (activity was measured to be greater than 5.0 μM)
- Emax [2]: 25 to 100%
- M4 Activity [2]: x (activity was measured to be greater than 5.0 μM)

Compound: COc1ccccc1N1CCC(N2CCC3(CC2)CN(C(=O)N(C)C)c2ccc(F)cc23)CC1 [compound 552]
- Emax [1]: 25 to 100%
- M1 Activity [1]: x (activity was measured to be greater than 5.0 μM)
- Emax [2]: 25 to 100%
- M4 Activity [2]: x (activity was measured to be greater than 5.0 μM)

Compound: C#CCCC(=O)N1CCC(N2CCC3(CC2)CN(C(=O)N(C)C)c2ccc(F)cc23)CC1 [compound 553]
- Emax [1]: 25 to 100%
- M1 Activity [1]: xxx (activity was measured to be less than 2.0 μM)
- Emax [2]: < 25%
- M4 Activity [2]: xxx (activity was measured to be less than 2.0 μM)

Compound: CCOC(=O)N1CCC(CN2CCC3(CC2)CN(C(C)=O)c2ccc(C(C)C)cc23)CC1 [compound 555]
- Emax [1]: 25 to 100%
- M1 Activity [1]: xxx (activity was measured to be less than 2.0 μM)
- Emax [2]: 25 to 100%
- M4 Activity [2]: xx (activity was measured to be between 2.0 μM and 5.0 μM)

Compound: CC(=O)N1CC2(CCN(C3CCN(c4cncc(-c5ccc(F)cc5)n4)CC3)CC2)c2ccccc21 [compound 556]
- Emax [1]: 25 to 100%
- M1 Activity [1]: x (activity was measured to be greater than 5.0 μM)
- Emax [2]: < 25%
- M4 Activity [2]: x (activity was measured to be greater than 5.0 μM)

Compound: CC(C)OC(=O)N1CC[C@@H](CN2CCC3(CC2)CN(C(=O)N(C)C)c2ccc(F)cc23)C1 [compound 558]
- Emax [1]: 25 to 100%
- M1 Activity [1]: xxx (activity was measured to be less than 2.0 μM)
- Emax [2]: 25 to 100%
- M4 Activity [2]: xxx (activity was measured to be less than 2.0 μM)

Compound: CCOC(=O)N1CCC(N2CCC3(CC2)CN(C(C)=O)c2c(-c4ccoc4)cccc23)CC1 [compound 559]
- Emax [1]: 25 to 100%
- M1 Activity [1]: xxx (activity was measured to be less than 2.0 μM)
- Emax [2]: 25 to 100%
- M4 Activity [2]: x (activity was measured to be greater than 5.0 μM)

Compound: CCOC(=O)N1CCC(N2CCC3(CC2)CN(C(C)=O)c2cccc(OC)c23)CC1 [compound 560]
- Emax [1]: 25 to 100%
- M1 Activity [1]: xxx (activity was measured to be less than 2.0 μM)
- Emax [2]: < 25%
- M4 Activity [2]: x (activity was measured to be greater than 5.0 μM)

Compound: CN(C)C(=O)N1CC2(CCN(C3CCN(c4ccsc4)CC3)CC2)c2cc(F)ccc21 [compound 561]
- Emax [1]: 25 to 100%
- M1 Activity [1]: x (activity was measured to be greater than 5.0 μM)
- Emax [2]: 25 to 100%
- M4 Activity [2]: xx (activity was measured to be between 2.0 μM and 5.0 μM)

Compound: C#Cc1ccc2c(c1)C1(CCN(C3CCN(C(=O)OCC)CC3)CC1)CN2C(C)=O [compound 563]
- Emax [1]: > 100%
- M1 Activity [1]: xxx (activity was measured to be less than 2.0 μM)
- Emax [2]: 25 to 100%
- M4 Activity [2]: xxx (activity was measured to be less than 2.0 μM)

Compound: C#CCOC(=O)N1CC[C@@H](CN2CCC3(CC2)CN(C(C)=O)c2cccc(C)c23)C1 [compound 564]
- Emax [1]: 25 to 100%
- M1 Activity [1]: xxx (activity was measured to be less than 2.0 μM)
- Emax [2]: 25 to 100%
- M4 Activity [2]: xxx (activity was measured to be less than 2.0 μM)

Compound: C#CCCOC(=O)N1CCC(N2CCC3(CC2)CN(CCOC)c2ccc(F)cc23)CC1 [compound 565]
- Emax [1]: 25 to 100%
- M1 Activity [1]: xxx (activity was measured to be less than 2.0 μM)
- Emax [2]: 25 to 100%
- M4 Activity [2]: xxx (activity was measured to be less than 2.0 μM)

Compound: COc1cc2c(cc1OC)C1(CCN(C3CC(C)(C)CC(C)(C)C3)CC1)CC2NC(C)=O (stereo not shown) [compound 566]
- Emax [1]: < 25%
- M1 Activity [1]: x (activity was measured to be greater than 5.0 μM)
- Emax [2]: < 25%
- M4 Activity [2]: x (activity was measured to be greater than 5.0 μM)

Compound: CCOC(=O)N1CCC(N2CCC3(CC2)CN(c2ncccn2)c2ccc(F)cc23)CC1 [compound 567]
- Emax [1]: 25 to 100%
- M1 Activity [1]: xxx (activity was measured to be less than 2.0 μM)
- Emax [2]: 25 to 100%
- M4 Activity [2]: xxx (activity was measured to be less than 2.0 μM)

Compound: CC(=O)N[C@H]1CCC2(CCN(CCC3CCCCC3)CC2)c2ccccc21 [compound 568]
- Emax [1]: 25 to 100%
- M1 Activity [1]: xxx (activity was measured to be less than 2.0 μM)
- Emax [2]: < 25%
- M4 Activity [2]: xxx (activity was measured to be less than 2.0 μM)

Compound: COc1ccc([C@@H](C)N[C@H]2CC3(CCN(CC4CC5C=CC4C5)CC3)c3cc(Cl)ccc32)cc1 (stereo partly shown) [compound 569]
- Emax [1]: 25 to 100%
- M1 Activity [1]: xx (activity was measured to be between 2.0 μM and 5.0 μM)
- Emax [2]: 25 to 100%
- M4 Activity [2]: xx (activity was measured to be between 2.0 μM and 5.0 μM)

Compound: CN(C)C(=O)N1CC2(CCN(C[C@@H]3CCN(c4nccs4)C3)CC2)c2cc(F)ccc21 [compound 570]
- Emax [1]: 25 to 100%
- M1 Activity [1]: xx (activity was measured to be between 2.0 μM and 5.0 μM)
- Emax [2]: 25 to 100%
- M4 Activity [2]: xxx (activity was measured to be less than 2.0 μM)

Compound: COCCN1CC2(CCN(C3CCN(C(=O)OC(C)C)CC3)CC2)c2cc(F)ccc21 [compound 571]
- Emax [1]: 25 to 100%
- M1 Activity [1]: xxx (activity was measured to be less than 2.0 μM)
- Emax [2]: 25 to 100%
- M4 Activity [2]: xxx (activity was measured to be less than 2.0 μM)

Compound: Cc1noc(C)c1C(=O)N1CCC(N2CCC3(CC2)CN(C(=O)N(C)C)c2ccc(F)cc23)CC1 [compound 572]
- Emax [1]: 25 to 100%
- M1 Activity [1]: xx (activity was measured to be between 2.0 μM and 5.0 μM)
- Emax [2]: < 25%
- M4 Activity [2]: x (activity was measured to be greater than 5.0 μM)

Compound: C#CCOC(=O)N1CC[C@H](CN2CCC3(CC2)CN(C(C)=O)c2cccc(C)c23)C1 [compound 573]
- Emax [1]: 25 to 100%
- M1 Activity [1]: xxx (activity was measured to be less than 2.0 μM)
- Emax [2]: 25 to 100%
- M4 Activity [2]: xxx (activity was measured to be less than 2.0 μM)

Compound: C#CC(=O)N1CCC(N2CCC3(CC2)CN(C(=O)N(C)C)c2ccc(F)cc23)CC1 [compound 574]
- Emax [1]: 25 to 100%
- M1 Activity [1]: xx (activity was measured to be between 2.0 μM and 5.0 μM)
- Emax [2]: 25 to 100%
- M4 Activity [2]: xxx (activity was measured to be less than 2.0 μM)

Compound: CC(=O)N[C@H]1CCC2(CCN(CCC3CCN(C(=O)OC(C)(C)C)CC3)CC2)c2ccccc21 [compound 575]
- Emax [1]: < 25%
- M1 Activity [1]: x (activity was measured to be greater than 5.0 μM)
- Emax [2]: < 25%
- M4 Activity [2]: x (activity was measured to be greater than 5.0 μM)

Compound: O=C(N[C@H]1CCC2(CCN(CC3CC4C=CC3C4)CC2)c2ccccc21)C1CC1 (stereo partly shown) [compound 576]
- Emax [1]: 25 to 100%
- M1 Activity [1]: xxx (activity was measured to be less than 2.0 μM)
- Emax [2]: 25 to 100%
- M4 Activity [2]: xxx (activity was measured to be less than 2.0 μM)

Compound: CC(=O)N1CC2(CCN(CC3CC3)CC2)c2cc(F)ccc21 [compound 577]
- Emax [1]: < 25%
- M1 Activity [1]: x (activity was measured to be greater than 5.0 μM)
- Emax [2]: < 25%
- M4 Activity [2]: x (activity was measured to be greater than 5.0 μM)

Compound: CCC#CCOC(=O)N1CC[C@H](CN2CCC3(CC2)CN(C(C)=O)c2ccccc23)C1 [compound 578]
- Emax [1]: 25 to 100%
- M1 Activity [1]: xxx (activity was measured to be less than 2.0 μM)
- Emax [2]: 25 to 100%
- M4 Activity [2]: xxx (activity was measured to be less than 2.0 μM)

Compound: CCOC(=O)N1CCC(N2CCC3(CC2)CN(C(C)=O)c2c(F)cc(F)cc23)CC1 [compound 579]
- Emax [1]: 25 to 100%
- M1 Activity [1]: xxx (activity was measured to be less than 2.0 μM)
- Emax [2]: 25 to 100%
- M4 Activity [2]: xxx (activity was measured to be less than 2.0 μM)

Compound: CCOC(=O)N1C2CCC1CC(N1CCC3(CC1)CN(C(C)=O)c1ccc(S(C)(=O)=O)cc13)C2 (stereo not shown) [compound 580]
- Emax [1]: 25 to 100%
- M1 Activity [1]: xxx (activity was measured to be less than 2.0 μM)
- Emax [2]: 25 to 100%
- M4 Activity [2]: x (activity was measured to be greater than 5.0 μM)
